Assay results from EP0194571A1, “Heterocyclic disulfides, process for their preparation and pharmaceutical preparations containing them” (HOECHST AKTIENGESELLSCHAFT, priority 1985, dated 1986).

Assays:
Assay type in all cases: in vivo, NMRI-Mäuse
[1] = test system: Maus-Peritonealmakrophagen; assay: Activation of mononuclear phagocytes: oxidative metabolism (chemiluminescence) of peritoneal macrophages from treated mice; conditions: relative to maximal activation by compound of Beispiel 8 = 100 %; 100 mg/kg i.p.
Protocol: (§1) Hier wurde der Einfluß der nach Ausführungsbeispiel 8 erhaltenen Prüfsubstanz auf die Stimulation von Peritonealmakrophagen bei 6- 8 Wochen alten NMRI-Mäusen untersucht. Mäuseweibchen erhielten auf parenteralem oder oralem Wege die Prüfsubstanz in einer Dosis von 25 mg/kg, 50 mg/kg, 100 mg/kg und 200 mg/kg. Der Kontrollgruppe wurde gepufferte Kochsalzlösung verabreicht. Drei Tage nach den Injektionen wurden die Mäuse getötet, und es wurden die Peritonealmakrophagen der Tiere auf ihren Aktivierungszustand hin untersucht. Als Maß der Makrophagenaktivierung wurde zum einen die Sekretion der lyosomalen Enzyme (ß-Galactosidase, ß-Glucuronidase, N-Acetyl-ß-D-Glucosaminidase) bestimmt. Auf der anderen Seite konnte in vergleichbaren Makrophagenkulturen die Pinozytose durch die Aufnahme von kolloidalem Gold (^19^8Au) - wie sie dem Fachmann bekannt ist - untersucht werden. Die Höhe des oxidativen Stoffwechsels bei Makrophagen gilt als ein weiteres Maß für ihren Aktivierungszustand. Gemessen wird diese Aktivität unter Zuhilfenahme des Biolumaten durch Bestimmung der Chemolumineszenz.
(§2) Zu diesem Zweck wurden entweder in Petrischalen von 30 mm Durchmesser 3 x 10^6 Makrophagen mit 1 ml TC 199-Kulturmedium oder aber 10^6 Makrophagen mit 100 µl in Rundbogen-Polyäthylen-Röhrchen (zur Bestimmung der Chemolumineszenz) bei 5 % G02 und 37°C kultiviert.
(§3) Nach einstündiger Bebrütung wurden die Kulturen gewaschen, um schwimmende Zellen zu entfernen. Die Chemolumineszenz (Röhrchenkultur) wurde dann direkt bestimmt, während die Petrischalen erneut 24 Stunden bei 37°C bebrütet wurden und danach die Enzym- und Pinozytoseaktivität in den Kulturen bestimmt wurde. Es wurden die nachstehenden Ergebnisse erzielt.
Die parenterale sowie die orale Behandlung von NMRI-Mäusen mit der gemäß Beispiel 8 hergestellten Prüfsubstanz stimuliert die Makrophagenaktivität und hat damit eine immunitätstimulierende Wirkung. So wird der oxidative Stoffwechsel bei Makrophagen mit der Generierung von Sauerstoffradikalen und dem damit verbundenen meßbaren Licht deutlich erhöht. Bei Dosierungen von 25 mg/kg aufwärts kommt es zu einer dosisabhänigen Steigerung der Makrophagenaktivität sowohl bei parenteraler als auch oraler Applikation.
(§4) Wie im Experiment 2 beschrieben, wurden NMRI-Mäuse mit den erfindungsgemäßen Verbindungen behandelt.
(§5) Als Test zur Erfassung der Immunstimulation wurde die Funktion der Makrophagen (Chemolumineszenz und Enzymaktivität) überprüft.
(§6) Tabelle 8 zeigt die relative Wirksamkeit der Prüfsubstanzen bezogen auf die Verbindung aus Beispiel 8, deren maximale Aktivierung (Differenz zwischen Kontrolle und Stimulation) 100 % entspricht. Der Tabelle ist zu entnehmen, daß im Vergleich zu Makrophagen aus unbehandelten Tieren, diese Zellen auch durch alle Prüfsubstanzen in ihrer Chemolumineszenzreaktion stark stimuliert und in ihrem Gehalt an lysosomalen Enzymen deutlich erhöht waren.

[2] = test system: Maus-Peritonealmakrophagen; assay: Activation of mononuclear phagocytes: release of lysosomal hydrolases (exocytosis) by peritoneal macrophages from treated mice; conditions: lysosomal enzyme activity, relative to maximal activation by compound of Beispiel 8 = 100 %; 100 mg/kg i.p.
Protocol: as §1, §2, §3
Aus der Tabelle 3 ist zu entnehmen, daß Makrophagen von Kontrollmäusen nur geringe Mengen an lysosomalen Enzymen (ß-Glucuronidase, ß-Galactosidase, N-Acetyl-ß-D-Glucosaminidase) in den Kulturüberstand abgeben. Mononukleare Phagozyten von Mäusen, die parenteral oder oral mit der Prüfsubstanz 72 Stunden behandelt wurde, sezernieren die o.a. sauren Hydrolasen (ß-Glu, ß-Gal, N-Ac-Glu) deutlich mehr und weisen damit eine Dosiswirkungskurve auf, die bei allen gemessenen Enzymen eine Überlegenheit gegenüber den Kontrollen erkennen läßt. Es ist ersichtlich, daß die Prüfsubstanz eine stimulierende Wirkung auf die Makrophagenaktivität besitzt und zur Erhöhung der Enzymfreisetzung beiträgt.
as §4, §5, §6

[3] = test system: zelluläre Immunantwort (DTH-Reaktion) gegen Schafserythrozyten; assay: Delayed type hypersensitivity (DTH) reaction against sheep erythrocytes, foot swelling in mice; conditions: relative to maximal activation by compound of Beispiel 8 = 100 %, 1 x i.p. Tag 0

Structure (SMILES) | Makrophagenaktivität Chemolumineszenz [1] [%] | Makrophagenaktivität Exozytose [2] [%] | DTH-Reaktion (SRBC) ([3]; Dosis 20 mg/kg) [%] | DTH-Reaktion (SRBC) ([3]; Dosis 200 mg/kg) [%] | DTH-Reaktion (SRBC) ([3]; Dosis 100 mg/kg) [%] | DTH-Reaktion (SRBC) ([3]; Dosis 10 mg/kg) [%]
Oc1nc(SSc2nc(O)nn2-c2ccccc2)n(-c2ccccc2)n1 [Beispiel 1, Bis-(3-Hydroxy-1-phenyl-1,2,4-triazol-5-yl)-disulfid] | 30 | 48 | – | – | – | –
O=C(O)c1ccc2nc(SSc3nc4ccc(C(=O)O)cc4[nH]3)[nH]c2c1 [Beispiel 2, Bis-(5-Carboxy-benzimidazol-2-yl)-disulfid] | 72 | 53 | 88 | – | – | –
C=C(Cl)Cn1c(SSc2nnc(O)c(=O)n2CC(=C)Cl)nnc(O)c1=O [Beispiel 5] | 37 | 45 | – | 61 | – | –
Cn1nc(O)c(=O)nc1SSc1nc(=O)c(O)nn1C [Beispiel 6] | 26 | 33 | – | – | 100 | –
O=C(O)Cc1csc(SSc2nc(CC(=O)O)cs2)n1 [Beispiel 10, Bis-(4-Carboxymethyl-1,3-thiazol-2-yl)-disulfid] | 66 | 21 | – | – | – | 112
O=C(O)c1cnc(SSc2ncc(C(=O)O)s2)s1 [Beispiel 12, Bis-(5-Carboxy-1,3-thiazol-2-yl)-disulfid] | 39 | 54 | – | – | 96 | –
Cc1nc(SSc2nc(C)c(C(=O)O)s2)sc1C(=O)O [Beispiel 13] | 81 | 77 | – | 147 | – | –
Cc1sc(SSc2nc(CC(=O)O)c(C)s2)nc1CC(=O)O [Beispiel 14, Bis-(4-Carboxymethyl-5-methyl-thiazol-2-yl)-disulfid] | 97 | 93 | – | – | 118 | –
